Assay results as given in US20170064988A1, “Delivery Systems for Natural High-Potency Sweetener Compositions, Methods for Their Formulation, and Uses” (The Coca-Cola Company, priority 2007, published 2017).

Columns and labels:
[1] = Dissolution of spray-dried amorphous rebaudioside A in water; assay type: physicochemical; conditions: room temperature, in 5 minutes
Protocol: A solution of rebaudioside A (>97% pure by HPLC) was prepared in double distilled water (12.5 gm in 50 mL, 25% concentration) by stirring the mixture at 40° C. for 5 minutes. An amorphous rebaudioside form of A was formed by immediately using the clear solution for spray drying with the Lab-Plant spray drier SD-04 instrument (Lab-Plant Ltd., West Yorkshire, U.K.). The solution was fed through the feed pump into the nozzle atomizer which atomized it into a spray of droplets with the help of a constant flow of nitrogen/air. […] This dry powder (11-12 g, H2O 6.74%) was discharged continuously from the drying chamber and was collected in a bottle. The material was dissolved rapidly in water at room temperature up to a concentration of 35.0% (w/v) in 5 minutes.

[2] = Rate of dissolution of rebaudioside A polymorphic and amorphous forms in water; assay type: physicochemical

Row | SMILES | Concentration dissolved rapidly in water [1] | Rate of dissolution in H2O at 25° C. (grade in words) [2] | Rate of dissolution in H2O at 25° C., amount dissolved in 60 minutes ([2]; in 60 minutes) | Rate of dissolution in H2O at 25° C., amount dissolved in 5 minutes [2]
1 | C=C1C[C@@]23CC[C@H]4[C@@](C)(CCC[C@@]4(C)C(=O)O[C@@H]4O[C@H](CO)[C@@H](O)[C@H](O)[C@H]4O)[C@@H]2CC[C@]1(O[C@@H]1O[C@H](CO)[C@@H](O)[C@H](O[C@@H]2O[C@H](CO)[C@@H](O)[C@H](O)[C@H]2O)[C@H]1O[C@@H]1O[C@H](CO)[C@@H](O)[C@H](O)[C@H]1O)C3 [Example F, rebaudioside A] | ≤ 35.0 % (w/v) |  |  | 
2 | C=C1C[C@@]23CC[C@H]4[C@@](C)(CCC[C@@]4(C)C(=O)O[C@@H]4O[C@H](CO)[C@@H](O)[C@H](O)[C@H]4O)[C@@H]2CC[C@]1(O[C@@H]1O[C@H](CO)[C@@H](O)[C@H](O[C@@H]2O[C@H](CO)[C@@H](O)[C@H](O)[C@H]2O)[C@H]1O[C@@H]1O[C@H](CO)[C@@H](O)[C@H](O)[C@H]1O)C3 [Form 1, rebaudioside A] |  | Very low | (<0.2% in | 
3 | C=C1C[C@@]23CC[C@H]4[C@@](C)(CCC[C@@]4(C)C(=O)O[C@@H]4O[C@H](CO)[C@@H](O)[C@H](O)[C@H]4O)[C@@H]2CC[C@]1(O[C@@H]1O[C@H](CO)[C@@H](O)[C@H](O[C@@H]2O[C@H](CO)[C@@H](O)[C@H](O)[C@H]2O)[C@H]1O[C@@H]1O[C@H](CO)[C@@H](O)[C@H](O)[C@H]1O)C3 [Form 2, rebaudioside A] |  | Intermediate |  | (<30% in
4 | C=C1C[C@@]23CC[C@H]4[C@@](C)(CCC[C@@]4(C)C(=O)O[C@@H]4O[C@H](CO)[C@@H](O)[C@H](O)[C@H]4O)[C@@H]2CC[C@]1(O[C@@H]1O[C@H](CO)[C@@H](O)[C@H](O[C@@H]2O[C@H](CO)[C@@H](O)[C@H](O)[C@H]2O)[C@H]1O[C@@H]1O[C@H](CO)[C@@H](O)[C@H](O)[C@H]1O)C3 [Form 3, rebaudioside A] |  | High |  | (>30% in
5 | C=C1C[C@@]23CC[C@H]4[C@@](C)(CCC[C@@]4(C)C(=O)O[C@@H]4O[C@H](CO)[C@@H](O)[C@H](O)[C@H]4O)[C@@H]2CC[C@]1(O[C@@H]1O[C@H](CO)[C@@H](O)[C@H](O[C@@H]2O[C@H](CO)[C@@H](O)[C@H](O)[C@H]2O)[C@H]1O[C@@H]1O[C@H](CO)[C@@H](O)[C@H](O)[C@H]1O)C3 [Form 4, rebaudioside A] |  | High |  | (>35% in
